Values quoted from earlier work in US7584087B2, “Structure of protein kinase C theta” (Wyeth, priority 2004, dated 2009).

Assays:
Conditions in all cases: result in words, from Meggio et al. 1995
CSK = CSK (Homo sapiens, UniProt P41240)
casein kinase 2 (CK2) = test system: casein kinase 2 (CK2)
[1] = test system: mitogen-activated protein kinase (MAPK)
PKC isoforms = test system: PKC isoforms
casein kinase 1 (CK1) = test system: casein kinase 1 (CK1)

Chain of CSK (P41240 whole entry, species assumed): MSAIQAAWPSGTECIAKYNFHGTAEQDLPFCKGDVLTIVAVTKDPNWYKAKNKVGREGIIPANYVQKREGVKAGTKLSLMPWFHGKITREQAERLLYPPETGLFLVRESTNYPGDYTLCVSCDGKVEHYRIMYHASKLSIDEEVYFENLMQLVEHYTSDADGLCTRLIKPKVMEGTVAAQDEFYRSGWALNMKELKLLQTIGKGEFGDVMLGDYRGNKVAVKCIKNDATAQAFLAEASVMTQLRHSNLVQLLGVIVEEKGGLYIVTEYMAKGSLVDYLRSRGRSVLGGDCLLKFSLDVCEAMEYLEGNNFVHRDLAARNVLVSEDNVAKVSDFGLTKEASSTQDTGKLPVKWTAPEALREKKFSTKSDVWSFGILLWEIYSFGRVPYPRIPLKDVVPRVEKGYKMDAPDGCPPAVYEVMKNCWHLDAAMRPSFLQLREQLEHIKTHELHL

Which “potency against CSK” value (CSK) does the source give for CN[C@@H]1C[C@H]2O[C@@](C)([C@@H]1OC)n1c3ccccc3c3c4c(c5c6ccccc6n2c5c31)C(=O)NC4 [Staurosporine, staurosporine] here?
Its value is “micromolar”.

What about the “potency against casein kinase 2 (CK2)” value (casein kinase 2 (CK2)) of the same molecule?
Its value is “micromolar”.

What about the “potency against mitogen-activated protein kinase (MAPK)” value [1] of the same molecule?
Its value is “micromolar”.

What about the “potency against PKC isoforms” value (PKC isoforms) of the same molecule?
Its value is “low nanomolar”.

And the “potency against casein kinase 1 (CK1)” value (casein kinase 1 (CK1))?
The value was “micromolar”.
